From the supplement of paper PMC10307832

Tests used:
Assay in all cases: relative viability (nuclei count vs DMSO), 5 days (fraction); higher = more cells survive
Indole-3-carbinol = compound: OCc1c[nH]c2ccccc12 [Indole-3-carbinol]
In short: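 Acceptance criteria were a control CV below 25% and at least one doubling per plate. Lung cancer cell lines in 1536-well plates got five library-drug doses (not always all listed) √10 apart by pinning and were left 5 days with no medium change. Viability divides treated-well nuclei by vehicle-well nuclei and is the median across plates. Nuclei were counted by MetaXpress from 4× Hoechst images.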

[1] = compound: OCc1c[nH]c2ccccc12 [Indole-3-carbinol] + CS(=O)(=O)CCNCc1ccc(-c2ccc3ncnc(Nc4ccc(OCc5cccc(F)c5)c(Cl)c4)c3c2)o1 [Lapatinib] (partner 2 µM)
In short: (§1)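 Each reported value is a median over duplicate plates. It expresses relative viability: treated-well nuclei count divided by vehicle-well nuclei count. Lung cancer cell lines in 1536-well plates were dosed by pin tool a day after seeding, alone with one drug or with a fixed anchor-drug dose plus five library-drug doses (not always all listed) in √10 steps, and nuclei were counted after 5 days.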

[2] = compound: OCc1c[nH]c2ccccc12 [Indole-3-carbinol] + O=C(CCCCCCC(=O)Nc1ccccc1)NO [Vorinostat] (partner 1 µM)
In short: as §1

[3] = compound: OCc1c[nH]c2ccccc12 [Indole-3-carbinol] + CC1(C)CCC(c2ccc(Cl)cc2)=C(CN2CCN(c3ccc(C(=O)NS(=O)(=O)c4ccc(N[C@H](CCN5CCOCC5)CSc5ccccc5)c(S(=O)(=O)C(F)(F)F)c4)cc3)CC2)C1 [Navitoclax] (partner 0.5 µM)
In short: as §1

[4] = compound: OCc1c[nH]c2ccccc12 [Indole-3-carbinol] + Cc1nc(Nc2ncc(C(=O)Nc3c(C)cccc3Cl)s2)cc(N2CCN(CCO)CC2)n1 [Dasatinib] (partner 0.075 µM)
In short: as §1

| Cell Line | relative viability (Indole-3-carbinol; 0.253 µM) | relative viability (Indole-3-carbinol; 0.8 µM) | relative viability (Indole-3-carbinol; 2.53 µM) | relative viability (Indole-3-carbinol; 8 µM) | relative viability ([1]; first compound 0.253 µM) | relative viability ([1]; first compound 0.8 µM) | relative viability ([1]; first compound 2.53 µM) | relative viability ([1]; first compound 8 µM) | relative viability ([2]; first compound 0.253 µM) | relative viability ([2]; first compound 0.8 µM) | relative viability ([2]; first compound 2.53 µM) | relative viability ([2]; first compound 8 µM) | relative viability ([3]; first compound 0.253 µM) | relative viability ([3]; first compound 0.8 µM) | relative viability ([3]; first compound 2.53 µM) | relative viability ([3]; first compound 8 µM) | relative viability ([4]; first compound 0.253 µM) | relative viability ([4]; first compound 0.8 µM) | relative viability ([4]; first compound 2.53 µM) | relative viability ([4]; first compound 8 µM) |
| --- | --- | --- | --- | --- | --- | --- | --- | --- | --- | --- | --- | --- | --- | --- | --- | --- | --- | --- | --- | --- |
| IA-LM | 0.962 | 1.11 | 1.04 | 0.905 | 0.842 | 0.902 | 0.837 | 0.783 | 1.08 | 1.03 | 1.11 | 0.96 | 0.811 | 0.896 | 0.858 | 0.732 | – | – | – | – |
| ChaGo-K-1 | 0.965 | 0.99 | 0.893 | 1 | – | – | – | – | 0.792 | 0.729 | 0.76 | 0.73 | 0.805 | 0.962 | 0.913 | 0.966 | 0.583 | 0.568 | 0.709 | 0.604 |
| NCI-H2342 | 1.08 | 0.907 | 1.01 | 1.02 | – | – | – | – | 0.802 | 0.743 | 0.903 | 0.712 | – | – | – | – | 0.355 | 0.323 | 0.317 | 0.285 |
| SK-MES-1 | 1.02 | 1.08 | 0.991 | 0.953 | 0.455 | 0.501 | 0.452 | 0.421 | 1.16 | 1.08 | 1.08 | 0.986 | 1.28 | 1.3 | 1.18 | 1.18 | 0.472 | 0.343 | 0.387 | 0.417 |
| LCLC-97TM1 | 1.08 | 1.1 | 1.02 | 0.92 | 0.599 | 0.935 | 0.911 | 0.582 | 0.858 | 1.01 | 0.818 | 0.646 | 0.408 | 0.387 | 0.499 | 0.465 | 0.835 | 0.949 | 0.944 | 0.908 |
| NCI-H2170 | 0.999 | 1 | 0.929 | 0.955 | 0.281 | 0.28 | 0.253 | 0.289 | 0.906 | 0.832 | 0.851 | 0.778 | 0.577 | 0.766 | 0.682 | 0.607 | 0.588 | 0.644 | 0.703 | 0.594 |
| NCI-H1993 | 1.06 | 1.07 | 0.872 | 0.919 | 0.827 | 0.839 | 0.791 | 0.773 | 0.697 | 1.05 | 0.958 | 0.783 | 0.958 | 1.1 | 0.89 | 1.01 | 0.762 | 0.619 | 0.662 | 0.605 |
| NCI-H460 | 1.04 | 0.975 | 0.978 | 0.957 | 1.09 | 0.993 | 0.983 | 0.9 | 0.768 | 0.76 | 0.754 | 0.683 | 1.2 | 1.46 | 1.08 | 1 | 0.451 | 0.59 | 0.499 | 0.444 |
| NCI-H1975 | 1.04 | 0.93 | 1 | 0.897 | 0.966 | 0.847 | 0.936 | 0.876 | 0.663 | 0.754 | 0.73 | 0.712 | 1.14 | 1.27 | 1.11 | 1.08 | 0.376 | 0.426 | 0.329 | 0.35 |
| RERF-LC-KJ | 1.01 | 0.999 | 0.947 | 0.92 | 0.866 | 0.891 | 0.802 | 0.787 | 0.687 | 0.622 | 0.656 | 0.726 | 1.12 | 0.907 | 0.971 | 1.04 | 0.815 | 0.842 | 0.846 | 0.762 |
| NCI-H441 | 1.1 | 1.28 | 1.15 | 1.11 | – | – | – | – | 0.823 | 1.05 | 1.09 | 0.758 | 0.809 | 0.568 | 0.579 | 0.688 | 0.606 | 0.598 | 0.711 | 0.643 |
| ABC-1 | 0.816 | 0.995 | 1.12 | 0.955 | 1.27 | 1.2 | 1.37 | 0.845 | 1.59 | 1.05 | 1.23 | 1.1 | – | – | – | – | 0.47 | 0.596 | 0.456 | 0.591 |
| NCI-H1792 | 0.88 | 0.833 | 0.811 | 0.984 | 0.913 | 0.945 | 0.903 | 0.93 | – | – | – | – | 0.655 | 0.619 | 0.737 | 0.644 | 0.823 | 1.05 | 0.845 | 0.737 |
| HCC-44 | 0.983 | 0.972 | 0.954 | 0.96 | 1.02 | 1.04 | 0.973 | 0.988 | 1.15 | 1.16 | 1.12 | 1.03 | 1.05 | 0.986 | 0.941 | 0.859 | – | – | – | – |
| NCI-H1703 | 0.962 | 0.908 | 1.05 | 0.904 | 1.25 | 1.36 | 0.945 | 0.903 | – | – | – | – | 1.01 | 1.48 | 1.47 | 1.18 | – | – | – | – |
| NCI-H522 | 1.01 | 0.855 | 0.931 | 0.976 | – | – | – | – | 1.1 | 0.694 | 0.808 | 0.95 | – | – | – | – | 0.806 | 0.961 | 0.818 | 0.796 |
| SW 900 | 0.922 | 0.772 | 0.903 | 0.764 | – | – | – | – | 0.556 | 0.453 | 0.573 | 0.622 | – | – | – | – | 0.837 | 0.79 | 0.438 | 0.586 |
| NCI-H650 | 1 | 1.03 | 1.05 | 0.893 | 0.333 | 0.817 | 0.98 | 0.842 | 0.654 | 0.454 | 0.411 | 0.456 | – | – | – | – | 0.472 | 0.488 | 0.444 | 0.447 |
| LCLC-103H | 0.889 | 1.01 | 0.932 | 0.915 | – | – | – | – | 0.894 | 0.736 | 0.829 | 0.706 | – | – | – | – | 0.416 | 0.489 | 0.428 | 0.441 |
